According to PubChem BioAssay (NCI):
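Cells were grown in 96-well plates and exposed to each compound for 48 hours at five concentrations; endpoints were interpolated linearly between bracketing concentrations, or set to the highest concentration if not reached. TGI denotes the concentration required for complete inhibition of growth.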

Tests used:
Assay in all cases: NCI-60 cell line screen, 48 h
[1] = test system: EKVX NSCLC
[2] = test system: SNB-75 CNS
[3] = test system: OVCAR-3 ovarian
[4] = test system: NCI-H522 lung
[5] = test system: 786-0 renal
[6] = test system: SN12C renal
[7] = test system: HOP-62 NSCLC
[8] = test system: SW-620 colon
[9] = test system: RPMI-8226 leukemia
[10] = test system: UO-31 renal
[11] = test system: UACC-257 melanoma
[12] = test system: OVCAR-4 ovarian
[13] = test system: NCI-H460 lung
[14] = test system: SK-OV-3 ovarian
[15] = test system: HT29 colon
[16] = test system: OVCAR-5 ovarian
[17] = test system: MOLT-4 leukemia
[18] = test system: K-562 leukemia
[19] = test system: HCT-116 colon
[20] = test system: SK-MEL-5 melanoma
[21] = test system: KM12 colon
[22] = test system: HCT-15 colon
[23] = test system: SK-MEL-2 melanoma
[24] = test system: CAKI-1 renal
[25] = test system: DMS 273 small cell lung
[26] = test system: SF-295 CNS
[27] = test system: SF-268 CNS
[28] = test system: SK-MEL-28 melanoma
[29] = test system: SF-539 CNS
[30] = test system: M19-MEL melanoma
[31] = test system: OVCAR-8 ovarian
[32] = test system: HCC-2998 colon
[33] = test system: A549 NSCLC
[34] = test system: UACC-62 melanoma
[35] = test system: XF 498 CNS
[36] = test system: NCI-H226 lung
[37] = test system: KM20L2 colon
[38] = test system: SNB-19 CNS
[39] = test system: DMS 114 small cell lung
[40] = test system: LXFL 529 NSCLC
[41] = test system: ACHN renal
[42] = test system: HL-60(TB) leukemia
[43] = test system: M14 melanoma
[44] = test system: A498 renal
[45] = test system: LOX IMVI melanoma
[46] = test system: U251 CNS
[47] = test system: IGROV1 ovarian
[48] = test system: SR leukemia
[49] = test system: MALME-3M melanoma
[50] = test system: DLD-1 colon
[51] = test system: NCI-H23 lung
[52] = test system: TK-10 renal
[53] = test system: RXF 393 renal
[54] = test system: CCRF-CEM leukemia
[55] = test system: COLO 205 colon
[56] = test system: SNB-78 CNS

Which results are given for CS(=O)(=O)N(CCC#N)c1ccc(C=O)cc1?
TGI [1]: > 100 µM; TGI [2]: > 100 µM; TGI [3]: > 100 µM; TGI [4]: > 100 µM; TGI [5]: > 100 µM; TGI [6]: > 100 µM; TGI [7]: > 100 µM; TGI [8]: > 100 µM; TGI [9]: > 100 µM; TGI [10]: > 100 µM; TGI [11]: > 100 µM; TGI [12]: > 100 µM; TGI [13]: > 100 µM; TGI [14]: > 100 µM; TGI [15]: > 100 µM; TGI [16]: > 100 µM; TGI [17]: > 100 µM; TGI [18]: > 100 µM; TGI [19]: > 100 µM; TGI [20]: > 100 µM; TGI [21]: > 100 µM; TGI [22]: > 100 µM; TGI [23]: > 100 µM; TGI [24]: > 100 µM; TGI [25]: > 100 µM; TGI [26]: > 100 µM; TGI [27]: > 100 µM; TGI [28]: > 100 µM; TGI [29]: > 100 µM; TGI [30]: > 100 µM; TGI [31]: > 100 µM; TGI [32]: > 100 µM; TGI [33]: > 100 µM; TGI [34]: > 100 µM; TGI [35]: > 100 µM; TGI [36]: > 100 µM; TGI [37]: > 100 µM; TGI [38]: > 100 µM; TGI [39]: > 100 µM; TGI [40]: > 100 µM; TGI [41]: > 100 µM; TGI [42]: > 100 µM; TGI [43]: > 100 µM; TGI [44]: > 100 µM; TGI [45]: > 100 µM; TGI [46]: > 100 µM; TGI [47]: > 100 µM; TGI [48]: > 100 µM; TGI [49]: > 100 µM

How did the TGI [1] turn out when CCn1c(=O)c2ccccc2n2c(=O)c3cc4ccccc4cc3nc12 was run?
The TGI was greater than 100 µM.

What about the TGI [2] of the same compound?
The TGI was 95.3 µM.

And the TGI [3]?
Its TGI is greater than 100 µM.

What about the TGI [4] of the same compound?
The TGI was greater than 100 µM.

What about the TGI [50] of the same compound?
Its TGI is greater than 100 µM.

And the TGI [5]?
The TGI was greater than 100 µM.

What about the TGI [6] of the same compound?
The TGI was greater than 100 µM.

And the TGI [7]?
Its TGI is greater than 100 µM.

And the TGI [51]?
Its TGI is greater than 100 µM.

What about the TGI [8] of the same compound?
Its TGI is greater than 100 µM.

And the TGI [9]?
Its TGI is greater than 100 µM.

And the TGI [10]?
Its TGI is greater than 100 µM.

What about the TGI [11] of the same compound?
The TGI was greater than 100 µM.

And the TGI [52]?
The TGI was greater than 100 µM.

What about the TGI [53] of the same compound?
Its TGI is 37 µM.

And the TGI [13]?
Its TGI is greater than 100 µM.

What about the TGI [14] of the same compound?
The TGI was greater than 100 µM.

And the TGI [15]?
Its TGI is greater than 100 µM.

What about the TGI [16] of the same compound?
The TGI was greater than 100 µM.

And the TGI [17]?
The TGI was greater than 100 µM.

What about the TGI [18] of the same compound?
Its TGI is greater than 100 µM.

And the TGI [19]?
Its TGI is greater than 100 µM.

And the TGI [20]?
Its TGI is greater than 100 µM.

And the TGI [21]?
The TGI was greater than 100 µM.

What about the TGI [22] of the same compound?
The TGI was greater than 100 µM.

And the TGI [23]?
Its TGI is greater than 100 µM.

And the TGI [24]?
The TGI was greater than 100 µM.

And the TGI [25]?
Its TGI is greater than 100 µM.

What about the TGI [26] of the same compound?
Its TGI is 80 µM.

And the TGI [27]?
The TGI was greater than 100 µM.

And the TGI [29]?
The TGI was greater than 100 µM.

And the TGI [30]?
The TGI was greater than 100 µM.

What about the TGI [31] of the same compound?
The TGI was greater than 100 µM.

And the TGI [32]?
Its TGI is greater than 100 µM.

What about the TGI [33] of the same compound?
The TGI was greater than 100 µM.

What about the TGI [34] of the same compound?
Its TGI is greater than 100 µM.

What about the TGI [35] of the same compound?
The TGI was 49 µM.

And the TGI [36]?
The TGI was greater than 100 µM.

What about the TGI [54] of the same compound?
The TGI was greater than 100 µM.

And the TGI [37]?
The TGI was greater than 100 µM.

And the TGI [55]?
Its TGI is greater than 100 µM.

What about the TGI [38] of the same compound?
Its TGI is greater than 100 µM.

And the TGI [39]?
The TGI was greater than 100 µM.

What about the TGI [40] of the same compound?
The TGI was greater than 100 µM.

What about the TGI [41] of the same compound?
Its TGI is greater than 100 µM.

And the TGI [42]?
The TGI was greater than 100 µM.

What about the TGI [43] of the same compound?
The TGI was greater than 100 µM.

And the TGI [44]?
The TGI was greater than 100 µM.

And the TGI [56]?
Its TGI is greater than 100 µM.

And the TGI [45]?
Its TGI is greater than 100 µM.

And the TGI [46]?
The TGI was greater than 100 µM.

What about the TGI [47] of the same compound?
The TGI was greater than 100 µM.

And the TGI [49]?
Its TGI is greater than 100 µM.
